# Assay results reported in patent publication US20180325117A1, “PROBIOTIC COMPOSITIONS AND USES THEREOF” (priority 2015, published 2018).
# Experiments:
# Type in all cases: in vivo
# [1] = test system: hairy wart and foot rot; experiment: Hoof spray of lactating cows: lameness, hairy wart and foot rot
# [2] = test system: turkeys; experiment: Turkey mortality with water additive, flocks of 50,000 turkeys; set-up: mortality cumulative total per group: concentration or dose not given beside the values
# From the text: The mortality of the flock of 50,000 turkeys that consumed water with chlorine dioxide was 6.5% as compared to 3% for a flock of 50,000 turkeys consuming water with W+. The y-axis of FIG. 13 represents the cumulative total mortality (%), and the x-axis represents a 19-week period during which the turkeys were observed. The top dotted line represents a flock (of 50,000 turkeys) with chlorine dioxide added to their water. The middle dotted line represents a flock (of 50,000 turkeys) that for four weeks consumed water treated with chlorine dioxide (5 ppm). After four weeks, the water additive was changed to W+ diluted 1:10,000 (note the reduced slope of the mortality curve at week 5). The bottom solid line represents a flock (of 50,000 turkeys) that was fed water with W+.
# [3] = test system: turkeys; experiment: Turkey weight versus barn standard and mortality, six barns
# From the text: A common practice among commercial turkey growing facilities is to compare the weight gain of their flocks against a standard that is based on the performance of the grower's previous flocks. The grower has a standard for each barn, or group of barns, based on their recorded history. […] The flocks in the barns being fed W+ in their water (Barns-055, Barn-043, and Barn-025) exceeded standard weights by 11.7%, while the barns where the turkeys were fed water with chlorine dioxide (Barns-041, Barn-047, and Barn-045) were −7.6% compared to standard weights. The y-axis represents % deviation from a standard (Std)(average for each barn), and the x-axis represents data obtained from turkeys in six different barns (approximately 17,000 turkeys per barn).
# [4] = test system: Clostridial scours; experiment: Swine gut health: scours on test farm; settings: total population of 3,850 swine; chlorine dioxide standard water protocol, then W+ 1:6,000 in water lines
# Protocol: Scours (dysentery) is a common ailment in swine and is symptomatic of poor gut health (gastrointestinal tract health). […] Column (B) is the number of swine (397) that were infected with scours while on a standard water protocol of chlorine dioxide to prevent biofilm in the water lines. The addition of chlorine dioxide was stopped and W+ (at a dilution of 1:6,000) was added to the water lines, the number of swine with scours was reduced to 23 (Column (C)), a 94% reduction in the number of swine with Clostridial scours.
# [5] = test system: Mastitis; experiment: Teat spray of lactating dairy cows: somatic cell count and Mastitis; settings: 210 lactating cows
# From the text: The efficacy of iodine versus D+t128 in reducing the presence of Mastitis was studied. […] 210 lactating dairy cows were milked twice a day for four weeks. The somatic cell count (SCC) of the herd at the beginning of the test period was 263,000/ml, as shown in the two right-hand columns of the top panel of FIG. 21. The standard protocol using iodine was as follows: prior to each milking, the teats of the dairy cows were sprayed with 0.5% iodine. After each milking, the teats of the dairy cows were sprayed with 1.0% iodine. Mastitis was evident on 27 of the cows (see bottom panel of FIG. 21). Treatment with iodine was then stopped, and D+t128 was used to treat the teats of the cows. Prior to each milking, the teats of the dairy cows were sprayed with 1.25 ounces of D+t128 at a dilution of 1:128. After each milking, the teats of the dairy cows were sprayed with 1.25 ounces of D+t128 at a dilution of 1:128. At the end of the test period, the SSC had decreased from 263,000/ml to 120,000/ml in the herd treated with D+t128 (see two right-hand columns of the top panel of FIG. 21). The lower the SSC, the healthier the cow; the lower SSC reading correlates with the reduced number of cows with Mastitis. The number of cows with Mastitis had decreased from 27 to 12 (see two right-hand columns of bottom panel of FIG. 21). The SSC values are an average of all milk obtained from the 210 lactating cows. […]
structure (smiles),measurement,setting,value
O=S(=O)([O-])[O-].[Cu+2] [Copper-Sulphate],percentage of lame cows,"[1]; herd of 500 lactating cows, Copper-Sulphate spray = T0 start, D+h100 1:100 spray = day 35",over 35%
same,cows with swelling indicating new hairy wart formation,"[1]; start of test period, prior Copper-Sulphate spray, data not shown",60%
[O][Cl+][O-] [chlorine dioxide],mortality cumulative total per group,[2]; Week 1,0.74%
same,mortality cumulative total per group,[2]; Week 2,1.45%
same,mortality cumulative total per group,[2]; Week 3,1.84%
same,mortality cumulative total per group,[2]; Week 4,2.15%
same,mortality cumulative total per group,[2]; Week 5,3.52%
same,mortality cumulative total per group,[2]; Week 6,3.97%
same,mortality cumulative total per group,[2]; Week 7,4.22%
same,mortality cumulative total per group,[2]; Week 8,4.46%
same,mortality cumulative total per group,[2]; Week 9,4.62%
same,mortality cumulative total per group,[2]; Week 10,4.79%
same,mortality cumulative total per group,[2]; Week 11,5.01%
same,mortality cumulative total per group,[2]; Week 12,5.14%
same,mortality cumulative total per group,[2]; Week 13,5.29%
same,mortality cumulative total per group,[2]; Week 14,5.46%
same,mortality cumulative total per group,[2]; Week 15,5.63%
same,mortality cumulative total per group,[2]; Week 16,5.82%
same,mortality cumulative total per group,[2]; Week 17,6.05%
same,mortality cumulative total per group,[2]; Week 18,6.29%
same,mortality cumulative total per group,[2]; Week 19,6.54%
same,mortality cumulative total per group,[2]; Week 20,6.84%
same,mortality cumulative total per group,[2]; Week 21,6.74%
same,mortality of the flock (cumulative total),"[2]; flock of 50,000 turkeys, FIG. 13, 19-week period, W+ 1:10,000, chlorine dioxide 5 ppm in water",6.5%
same,mortality rate (average),"[3]; FIG. 23, turkeys fed water with additive",12.3%
same,deviation from standard weights,"[3]; three barns per water additive, approximately 17,000 turkeys per barn, FIG. 14",−7.6%
same,number of swine infected with scours,[4],397
II [iodine],somatic cell count (SCC) of the herd,"[5]; iodine protocol = beginning of test period, D+t128 1:128 teat spray before and after each milking = end of 28-day test period","263,000 /ml"
same,number of cows with Mastitis,"[5]; iodine protocol = start, D+t128 1:128 = finish of 28-day test period",27
